Assays:
BMP-2 = molecular target: T1, BMP-2 (Homo sapiens, UniProt P12643); assay: ATDC5 cell based HTS bioassay: ALP production stimulated by BMP-2 and heparin; parameters: species or system mouse; conditions: for IC50: inhibition of BMP-2-stimulated ALP in ATDC5 cells, 48 hours, tested at 0.62-10 μM; for inhibition at 2.5 µM: ATDC5 cells, read-out: inhibition of BMP-2 (ALP induction)
T1 construct: purchased R&D Systems
T1 sequence (P12643 283-396): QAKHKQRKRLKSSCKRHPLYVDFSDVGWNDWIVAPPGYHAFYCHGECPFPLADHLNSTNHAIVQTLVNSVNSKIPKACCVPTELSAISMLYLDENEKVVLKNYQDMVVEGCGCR
Procedure: Poly-L-lysine (Sigma-Aldrich) was added to 384-well plates and was removed after 30 min of incubation at RT. An assay medium containing DMEM/F12, 2% FBS, 100 units/ml penicillin, […] streptomycin (Biological industries) was added to each well. […] ATDC5 cells (Sigma-Aldrich) were harvested, re-suspended in assay medium and added to a final concentration of 2000 cells/well. Finally, heparin (Sigma-Aldrich) was added to a final concentration of 2 μg/ml. The cells were incubated for 48 hours at 37° C. with 5% CO2 in a humidified chamber in the presence or absence of potential small molecule inhibitors of BPM-2. After incubation, ALP levels and cell viability were determined using a completely automated protocol. Cells were washed with PBS, lysed using a lysis buffer containing 0.2% Triton X-100 in PBS supplemented with a protease inhibitor cocktail (Sigma-Aldrich) and incubated for 25 min at RT. ALP level was then determined by addition of CDP-Star® chemiluminescent substrate (Sigma-Aldrich) and measurement of luminescence after incubation for 25 min at RT in the dark. Cell viability was finally determined by addition of CellTiter-Glo® reagent (Biological Industries) and luminescence measurement after 10 min of incubation.
An ATDC5 cell based assay for assessing structure-function relationship of BMP-2 and BMP receptor IA was originally described in Keller et al (Nature Structural & Molecular Biology 2004 11, 481-488). In order to screen a large volume of potential therapeutic agents the ATDC5 cell based bioassay for detecting BMP inhibition was adapted for use in high throughput screening. The bioassay is based on the stimulation of alkaline phosphatase (ALP) production in mouse ATDC5 cells by administration of BMP-2 and heparin, and measurement of ALP levels in the presence of the potential inhibitors. […] This was achieved by using CellTiter-Glo® Luminescent Cell Viability Assay for assessing the cells' viability after the luminescent signal by CDP-Star® has faded. The simultaneous assessment of both ALP production and cells' viability was necessary since potentially toxic tested small molecules may lead to reduced ALP levels by cellular cytotoxicity rather than by interference with BMP-2 signaling. […] Particulars of the bioassay are detailed in the Experimental procedures section above.
A library of small molecules (SM) was screened using the High Throughput Screening bioassay described above. About 7600 SMs were screened, from the Maybridge library, which consists of organic “drug-like” compounds, using the pre-plated HitFinder™ Collection. […] The SM were tested at various concentrations, i.e. at 0.62 μM, 1.25 μM, 2.5 μM, 5 μM and 10 μM.

RR-EAE mice [1] = assay: De novo expression of doublecortin (BrdU+DCX+ cells) in SVZ and SGZ of RR-EAE mice; type: in vivo
Description: FIGS. 10A-10B—The effect of SM1, SM7, SM9 and SM6 on de novo expression of neuroblasts marker doublecortin in the SVZ. FIG. 10A—Immunofluorescence images showing the labeling of BrdU and doublecortin (DCX) in the SVZ. Images were obtained using Zeiss 710 confocal microscope, coronal sections. LV, lateral ventricle, SVZ, subventricular zone. Scale bar for images: a, c, e, g, i, k, m, o=100 μm (magnification×10), and images: b, d, f, h, j, 1, n, p=20 μm (magnification×63). FIG. 10B: Quantification of BrdU^+ DOC^+ cells in the SVZ. Analysis was performed using image J software on 3 sections from each mouse (3 mice from each group, total n=9). Values are given as mean±SEM and the results of Student's t-test are represented as *p<0.05.
FIGS. 11A-11B—The effect of SM1, SM7, SM9 and SM6 on de novo expression of doublecortin in the SGZ. FIG. 11A: are immunohistochemical images showing the labeling of BrdU^+DCX^+ cells in the SGZ. Images were obtained using Olympus 8.1 microscope (magnification×10). FIG. 11B: Quantification of BrdU^+DCX^+ cells in the SGZ. Analysis was performed using image J software on 3 sections from each mouse (3 mice from each group, total n=9). Values are given as mean±SEM and the results of Student's t-test are represented as *p<0.05.
RR-EAE induced mice were intraperitoneally injected with 250 μg/mouse (Low-L) or 500 μg/mouse (High-H) of the small molecules SM1, SM7, SM9, SM6, or the corresponding vehicle. The SMs were injected each day starting on day 9 post immunization for 30 days. For immunohistochemical analysis, 3 mice of each group were intraperitoneally injected daily with bromo-2′-deoxyuridine (BrdU) starting from day 9 post immunization for 8 following days.
Next, the amount of BrdU DCX cells in the SGZ of mice was evaluated. FIGS. 11A-11B show immunohistochemical labeling of BrdU DCX cells in mice with EAE after treatment with the SMs or with vehicle.

RR-EAE mice [2] = assay: Demyelination in EAE: LFB-H&E staining of lumbar spinal cord; type: in vivo; conditions: day 48 post immunization (vehicle 28.3±1.8%)
Procedure: FIGS. 6A-6B—The effect of SM1, SM6, SM7 and SM9 on demyelination. FIG. 6A: Representative images of the lumbar spinal cord section, stained with LFB (anterio lateral funiculus), of mice treated with vehicle, SM1 10 mg/kg/day, SM1 20 mg/kg/day, SM7 10 mg/kg/day, SM9 10 mg/kg/day, SM9 20 mg/kg/day, SM6 10 mg/kg/day and SM6 20 mg/kg/day. FIG. 6B: Quantification of myelinated area. […] Quantification was performed using Image J software on 6 mice/group and 3 sections/mouse.
The direct effect of the SMs on the demyelination and remyelination processes was analyzed. Spinal cord was removed from 6 mice of each group and the lumbar segment of the spinal cord was sectioned (10 μm coronal paraffin section) and was processed for LFB-H&E (luxol fast blue with H&E) for myelin and infiltrates staining.

[3] = high dose (H) 500 μg/mouse i.p. daily from day 9 for 30 days
[4] = low dose (L) 250 μg/mouse i.p. daily from day 9 for 30 days
[5] = low dose (L) 250 μg/mouse i.p. daily

| Structure (SMILES) | IC50 (BMP-2) [µM] | BrdU+DCX+ cells in the SVZ vs. vehicle (RR-EAE mice [1]; [3]) | BrdU+DCX+ cells in the SVZ vs. vehicle (RR-EAE mice [1]; [4]) | % myelinated area (LFB-stained area of total spinal cord section) (RR-EAE mice [2]; 10 mg/kg) [%] | BrdU+DCX+ cells in the SGZ vs. vehicle (RR-EAE mice [1]; [5]) | inhibition at 2.5 µM (BMP-2) [%] | % myelinated area (LFB-stained area of total spinal cord section) (RR-EAE mice [2]; 20 mg/kg) [%] | BrdU+DCX+ cells in the SGZ vs. vehicle (RR-EAE mice [1]; high dose (H) 500 μg/mouse i.p. daily) |
| --- | --- | --- | --- | --- | --- | --- | --- | --- |
| COC(=O)c1sccc1N/N=C(\C#N)S(=O)(=O)c1cccs1 [SM1, Methyl 3-[(2E)-2-[cyano(thiophen-2-ylsulfonyl)methylidene]hydrazinyl]thiophene-2-carboxylate] | 2.6 | trend for increased induction | trend for increased induction |  |  |  |  |  |
| O=C(Nc1cccc(C(F)(F)F)c1)c1ccc([N+](=O)[O-])o1 [SM6, N2-[3-(trifluoromethyl)phenyl)-5-nitro-2-furamide] | 9.7 | trend for increased induction |  | 34.8±1.6 | trend for increased |  |  |  |
| N#Cc1c(O)nsc1Nc1ccccc1C(F)(F)F [SM7, 3-hydroxy-5-[2-(trifluoromethyl)aniline]isothiazole-4-carbonitrile] | 2.2 |  |  | 34.0±0.8 | trend for increased | 47.3 |  |  |
| CS(=O)(=O)c1noc(-c2ccc(Cl)cc2)c1C#N [SM9, 5-(4-chlorophenyl)-3-methylsulfonyl-1,2-oxazole-4-carbonitrile] | 4.4 | trend for increased induction | significant increase |  | trend for increased | 29.1 | 34.6±1.6 | significant increased induction |

— patent US11779565B2, “Small organic molecules for use in the treatment of neuroinflammatory disorders” (THE MEDICAL RESEARCH, INFRASTRUCTURE AND HEALTH SERVICES …, priority 2017, dated 2023)
